# Reference: patent US20130324405A1, “NEW ANTIFUNGAL COMPOSITIONS” (DSM IP ASSETS B.V., priority 2011, published 2013)
# Several values for one entry are separate records, joined by “and”; a condition that tells them apart may be missing. Equal entries are not always repeated.
# Experiments:
# Botrytis cinerea [1] = experiment: In vitro antifungal activity, 96-well microtiter plates; assay type: cell-based; conditions: 0.63 ppm natamycin, 25 ppm cyazofamid, 50 ppm fenamidone, or natamycin plus one of these, 7 days at 25° C.
# Method: Subsequently, 100 μl of a Botrytis cinerea suspension prepared in PCB medium was used to inoculated each well with 2.5×10^3spores/ml. […] The expected antifungal activity (E in %) of the active ingredient combination was calculated according to the Colby equation (Colby, 1967): […] wherein X and Y are the observed antifungal activities (in %) of the individual active ingredients X and Y, respectively.
# Fusarium proliferatum [2] = experiment: Treatment of wounded, inoculated bananas with antifungal compositions (mould growth); assay type: in vivo
# Method: Four organic, unripe (green) bananas were used per treatment. The peel of each banana was wounded thrice using a cork borer according to the method described by de Lapeyre de Bellaire and Dubois (1987). Subsequently, each wound was inoculated with 15 μl of a Fusarium proliferatum suspension containing 1×10^5 of spores/ml. […] In addition, the antifungal compositions comprised 1.00% (w/w) methylhydroxyethylcellulose (MHEC), 0.40% (w/w) xanthan gum, 0.20% (w/w) anti-foaming agent, 0.30% (w/w) citric acid, 0.39% (w/w) lactic acid and 0.11% (w/w) potassium sorbate. The pH of the composition was 4.
# The treated, unripe bananas were incubated in a closed box in the dark at 20° C. and a relative air humidity of 95%, which was obtained in the presence of a saturated Na2HPO4 aqueous solution. A ripe (yellow) banana was included in the closed box to elevate the ethylene gas level and thus induce ripening of the treated, unripe bananas.
# The expected antifungal activity (E in %) of the combined antifungal composition comprising both active ingredients was calculated according to the Colby equation (Colby, 1967): […]
# (§1) wherein X and Y are the observed antifungal activities (in %) of the individual active ingredients X and Y, respectively. If the observed antifungal activity (O in %) of the combination exceeds the expected antifungal activity (E in %) of the combination and the synergy factor O/E is thus >1.0, the combined application of the active ingredients leads to a synergistic antifungal effect.
# Fusarium proliferatum [3] = experiment: In vitro antifungal activity, 96-well microtiter plates; assay type: cell-based; conditions: 5 days at 25° C.
# Method: Subsequently, 100 μl of a Botrytis cinerea suspension prepared in PCB medium was used to inoculated each well with 2.5×10^3spores/ml.
# After incubation of the microtiter plates for 7 at 25° C., the in vitro antifungal activity (%) of the individual active ingredients was assessed by calculating the reduction in mould growth observed in the presence of the active ingredient in comparison to the mould growth observed in the absence of the active ingredient. The expected antifungal activity (E in %) of the active ingredient combination was calculated according to the Colby equation (Colby, 1967): […]
# as §1, with “and the resulting synergy factor” for “and the synergy factor”
# Furthermore, Fusarium proliferatum was used for inoculation.
# Botrytis cinerea [4] = experiment: Treatment of wounded, inoculated strawberries by dipping in antifungal compositions (mould growth); assay type: in vivo; conditions: for Observed antifungal activity O (%): strawberries
# Method: Twelve fresh, organic strawberries were used per treatment. Each strawberry was wounded with a 0.5 mm long cut and each wound was inoculated with 10 μl of a Botrytis cinerea suspension containing 1×10^5 of spores/ml. […] The antifungal composition also comprised 1.00% (w/w) methylhydroxyethylcellulose (MHEC), 0.40% (w/w) xanthan gum, 0.20% (w/w) anti-foaming agent, 0.30% (w/w) citric acid, 0.39% (w/w) lactic acid and 0.11% (w/w) potassium sorbate. The pH of the composition was 4.
# The treated strawberries were incubated in a closed box in the dark at 20° C. […]. […] The expected antifungal activity (E in %) of the combined antifungal composition comprising both active ingredients was calculated according to the Colby equation (Colby, 1967): […]
# as §1
# The treated strawberries were assessed on mould growth after 3, 4, 5, 7, 8 and 9 days of incubation according to the two methods described in Example 6.
# [5] = 250 ppm natamycin, 500 ppm cyazofamid or both, 27 days at 20° C.
# [6] = 500 ppm natamycin, 2000 ppm cyazofamid or both, 21 days at 20° C.
# [7] = 500 ppm natamycin, 2000 ppm cyazofamid or both, 23 days at 20° C.
# [8] = 500 ppm natamycin, 2000 ppm cyazofamid or both, 24 days at 20° C.
# [9] = 2.5 ppm natamycin, 50 ppm cyazofamid or both
# [10] = 50 ppm natamycin, 250 ppm fenamidone or both, Day 3 at 20° C.
# [11] = 50 ppm natamycin, 250 ppm fenamidone or both, Day 4 at 20° C.
# [12] = 50 ppm natamycin, 250 ppm fenamidone or both, Day 5 at 20° C.
# [13] = 500 ppm natamycin, 1000 ppm fenamidone or both, Day 3 at 20° C.
# [14] = 500 ppm natamycin, 1000 ppm fenamidone or both, Day 5 at 20° C.
# [15] = 50 ppm natamycin, 250 ppm fenamidone or both, 3 days at 20° C.
# [16] = 50 ppm natamycin, 250 ppm fenamidone or both, 4 days at 20° C.
# [17] = 50 ppm natamycin, 250 ppm fenamidone or both, 5 days at 20° C.
# [18] = 50 ppm natamycin, 250 ppm fenamidone or both, 7 days at 20° C.
# [19] = 50 ppm natamycin, 250 ppm fenamidone or both, 8 days at 20° C.
# [20] = 50 ppm natamycin, 250 ppm fenamidone or both, 9 days at 20° C.
# [21] = 500 ppm natamycin, 1000 ppm fenamidone or both, 3 days at 20° C.
# [22] = 500 ppm natamycin, 1000 ppm fenamidone or both, 4 days at 20° C.
# [23] = 500 ppm natamycin, 1000 ppm fenamidone or both, 5 days at 20° C.
# [24] = 500 ppm natamycin, 1000 ppm fenamidone or both, 7 days at 20° C.
# [25] = 500 ppm natamycin, 1000 ppm fenamidone or both, 8 days at 20° C.
# [26] = 500 ppm natamycin, 1000 ppm fenamidone or both, 9 days at 20° C.
Compound,Observed antifungal activity O (%) (Botrytis cinerea [1]),Observed antifungal activity O (%) (Fusarium proliferatum [2]; [5]),Observed antifungal activity O (%) (Fusarium proliferatum [2]; [6]),Observed antifungal activity O (%) (Fusarium proliferatum [2]; [7]),Observed antifungal activity O (%) (Fusarium proliferatum [2]; [8]),Observed antifungal activity O (%) (Fusarium proliferatum [3]; [9]),Number of moulded strawberries/total number of 12 strawberries (Botrytis cinerea [4]; [10]),Number of moulded strawberries/total number of 12 strawberries (Botrytis cinerea [4]; [11]),Number of moulded strawberries/total number of 12 strawberries (Botrytis cinerea [4]; [12]),Number of moulded strawberries/total number of 12 strawberries (Botrytis cinerea [4]; [13]),Number of moulded strawberries/total number of 12 strawberries (Botrytis cinerea [4]; [14]),Observed antifungal activity O (%) (Botrytis cinerea [4]; [15]),Observed antifungal activity O (%) (Botrytis cinerea [4]; [16]),Observed antifungal activity O (%) (Botrytis cinerea [4]; [17]),Observed antifungal activity O (%) (Botrytis cinerea [4]; [18]),Observed antifungal activity O (%) (Botrytis cinerea [4]; [19]),Observed antifungal activity O (%) (Botrytis cinerea [4]; [20]),Observed antifungal activity O (%) (Botrytis cinerea [4]; [21]),Observed antifungal activity O (%) (Botrytis cinerea [4]; [22]),Observed antifungal activity O (%) (Botrytis cinerea [4]; [23]),other results
"Cc1ccc(-c2c(Cl)nc(C#N)n2S(=O)(=O)N(C)C)cc1 [Cyazofamid, cyazofamid]",0%,1%,0%,0%,0%,0%,–,–,–,–,–,–,–,–,–,–,–,–,–,–,"Observed antifungal activity O (%) (Fusarium proliferatum [2]; 50 ppm natamycin, 250 ppm cyazofamid or both, 27 days at 20° C.): 0%; Observed antifungal activity O (%) (Fusarium proliferatum [3]; 75 ppm cyazofamid alone or with 2.5 ppm natamycin): 0%"
"CSC1=N[C@@](C)(c2ccccc2)C(=O)N1Nc1ccccc1 [Fenamidone, fenamidone]",0%,–,–,–,–,–,12 and 12/12,12 and 12/12,12 and 12/12,12 and 12/12,12 and 12/12,0%,0%,0%,0%,0%,0%,9%,0%,0%,Observed antifungal activity O (%) (Botrytis cinerea [4]; [24]): 0%; Observed antifungal activity O (%) (Botrytis cinerea [4]; [25]): 0%; Observed antifungal activity O (%) (Botrytis cinerea [4]; [26]): 0%
"C[C@@H]1C/C=C/C=C/C=C/C=C/[C@H](O[C@@H]2O[C@H](C)[C@@H](O)[C@H](N)[C@@H]2O)C[C@@H]2O[C@](O)(C[C@@H](O)C[C@H]3O[C@@H]3/C=C/C(=O)O1)C[C@H](O)[C@H]2C(=O)O [Natamycin, natamycin]",0%,4%,94%,86%,84%,0%,3 and 3/12,5 and 5/12,10 and 10/12,3 and 3/12,11 and 11/12,64%,50%,17%,17%,10%,0%,75%,69%,31%,Observed antifungal activity O (%) (Botrytis cinerea [4]; [24]): 13%; Observed antifungal activity O (%) (Botrytis cinerea [4]; [25]): 0%; Observed antifungal activity O (%) (Botrytis cinerea [4]; [26]): 0%
